Measurements published in ChEMBL document CHEMBL1201862, “PubChem BioAssay data set” (2004).
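All cell lines were grown in 96-well plates and treated with compound for 48 hours. GI50 = concentration required for 50% inhibition of growth.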 Active and inactive are the calls of the source. Cut-off read from the data, not from the text of the source: active = GI50 up to about 1.1 µM and inactive = higher.

How the values were obtained:
Test in all cases: NCI tumour cell line growth inhibition, 48 h
KM-20L2 = tested on: KM-20L2
SNB-78 = tested on: SNB-78
DLD-1 = tested on: DLD-1
DMS-273 = tested on: DMS-273
DMS-114 = tested on: DMS-114
M19-MEL = tested on: M19-MEL
RXF 631 = tested on: RXF 631
LXFL 529 = tested on: LXFL 529
HOP-18 = tested on: HOP-18

Structure (SMILES) | GI50 (KM-20L2) | GI50 (SNB-78) | GI50 (DLD-1) | GI50 (DMS-273) | GI50 (DMS-114) | GI50 (M19-MEL) | GI50 (RXF 631) | GI50 (LXFL 529) | GI50 (HOP-18)
O=C(/C=C/c1ccccc1O)c1ccccc1O | > 100 µM (inactive) | > 100 µM (inactive) | > 100 µM (inactive) | > 100 µM (inactive) | 16.7 µM (inactive) | > 100 µM (inactive) |  |  | 
COC(=O)C[C@H]1CCC2(OCCO2)[C@]1(C)C(=O)OC |  | > 100 µM (inactive) |  | > 100 µM (inactive) | > 100 µM (inactive) | > 100 µM (inactive) | > 100 µM (inactive) | > 100 µM (inactive) | 
CN(C)CCC(=O)/C=C\c1ccccc1 | 30.6 µM (inactive) | 15.5 µM (inactive) | 15.8 µM (inactive) | 16.3 µM (inactive) | 18.2 µM (inactive) | 19.7 µM (inactive) | 18.1 µM (inactive) | 13.5 µM (inactive) | 22.6 µM (inactive)
CC(C)(CN1CCCCC1)C(=O)/C=C/c1ccc(Br)cc1 | 2.49 µM (inactive) | 8.07 µM (inactive) | 3.01 µM (inactive) | 2 µM (inactive) | 1.47 µM (inactive) | 14.8 µM (inactive) |  | 1.81 µM (inactive) | 2.47 µM (inactive)
COc1ccc(NC(=O)/C(Cc2nc3ccccc3nc2O)=N\O)c(OC)c1 | > 100 µM (inactive) | > 100 µM (inactive) | > 100 µM (inactive) |  | > 100 µM (inactive) | > 100 µM (inactive) | > 100 µM (inactive) | > 100 µM (inactive) | > 100 µM (inactive)
COc1ccc([C@@H]2CC(=O)NCCCCNCCCN2)cc1 | > 100 µM (inactive) | > 100 µM (inactive) | > 100 µM (inactive) | > 100 µM (inactive) | > 100 µM (inactive) | > 100 µM (inactive) |  | > 100 µM (inactive) | > 100 µM (inactive)
CC1(C)OC2C(CCP(=O)(O)O)OC(c3nc(C(N)=O)cs3)C2O1 (configuration not stated) | > 100 µM (inactive) |  | > 100 µM (inactive) | > 100 µM (inactive) | > 100 µM (inactive) | > 100 µM (inactive) | > 100 µM (inactive) | > 100 µM (inactive) | > 100 µM (inactive)
CCN(CC)CCCCC1CCN(CC(=O)N2c3ccccc3NC(=O)CC2C)CC1 (configuration not stated) | > 100 µM (inactive) | > 100 µM (inactive) |  | > 100 µM (inactive) | 69 µM (inactive) | > 100 µM (inactive) | 30.1 µM (inactive) | > 100 µM (inactive) | > 100 µM (inactive)
CCCCCCCCCCCCCC(=O)OCC1OC(n2cc(F)c(=O)[nH]c2=O)C(N)C(OC(=O)CCCCCCCCCCCCC)C1O (configuration not stated) | > 100 µM (inactive) | > 100 µM (inactive) |  | > 100 µM (inactive) | > 100 µM (inactive) | > 100 µM (inactive) |  | > 100 µM (inactive) | 
C=C(CS(=O)(=O)c1ccccc1)C(=O)OCC | 21.8 µM (inactive) |  | 4.49 µM (inactive) | 16.4 µM (inactive) | 5.37 µM (inactive) |  | 1.9 µM (inactive) | 13.4 µM (inactive) | 
CC1=NN(C(=O)CC(=O)N(C(=O)c2ccccc2Cl)c2ccc(C)cc2)C(=O)C1/N=N/c1ccc([N+](=O)[O-])cc1 (configuration not stated) | > 55.6 µM (inactive) | 57.5 µM (inactive) | > 45.9 µM (inactive) | 48.9 µM (inactive) | > 42.8 µM (inactive) |  |  | 49.4 µM (inactive) | > 62.8 µM (inactive)
O=C(Cc1ccccc1)NN1C(=O)C(Cl)C1c1cc(Br)ccc1O (configuration not stated) | 9.64 µM (inactive) | 8 µM (inactive) | 3.33 µM (inactive) | 5.19 µM (inactive) | 2.23 µM (inactive) | 4.62 µM (inactive) |  | 5.68 µM (inactive) | 5.01 µM (inactive)
Cc1nc2sccn2c1C(=O)N/N=C1\SCC(=O)N1C | > 100 µM (inactive) |  | > 100 µM (inactive) | > 100 µM (inactive) | > 100 µM (inactive) | > 100 µM (inactive) | > 100 µM (inactive) | > 100 µM (inactive) | 26.3 µM (inactive)
O=C(O)CCCSC(=O)Nc1ccc(/N=N/c2ccccc2)cc1 | > 100 µM (inactive) | > 100 µM (inactive) |  | > 100 µM (inactive) | > 100 µM (inactive) |  |  | > 100 µM (inactive) | 
COc1ccc(C(=O)C2=NON3OC23C(=O)c2ccc(OC)cc2)cc1 (configuration not stated) | 19.1 µM (inactive) | 13 µM (inactive) | 7.28 µM (inactive) | 19.1 µM (inactive) | 5.96 µM (inactive) | 16.5 µM (inactive) | 15.1 µM (inactive) | 2.63 µM (inactive) | 18.9 µM (inactive)
Cc1cc(C)c2[s+]snc2c1 | > 100 µM (inactive) | 84.3 µM (inactive) | > 100 µM (inactive) | 47.1 µM (inactive) |  | > 100 µM (inactive) | 96.6 µM (inactive) | 34.4 µM (inactive) | 44.8 µM (inactive)
N#CC(NNC(=O)Cc1ccccc1)c1ccccc1O (configuration not stated) |  | 80.5 µM (inactive) | 47 µM (inactive) | 6.59 µM (inactive) |  | 7.96 µM (inactive) |  | 15.2 µM (inactive) | 13.2 µM (inactive)
Cc1cc(-c2ccccc2)cc2[n+]1CC=C2.[O-][Cl+3]([O-])([O-])[O-] | > 100 µM (inactive) | > 100 µM (inactive) | 58.5 µM (inactive) | 46.7 µM (inactive) | 77.4 µM (inactive) | > 100 µM (inactive) |  | 58.3 µM (inactive) | < 0.01 µM (active)
Oc1ccccc1-c1cnnc(-c2ccccc2O)c1 | 43.5 µM (inactive) | 33.3 µM (inactive) | 30.6 µM (inactive) |  | 15 µM (inactive) | 27.4 µM (inactive) |  | 21.5 µM (inactive) | 22.1 µM (inactive)
CCOP(=O)(OCC)/C(C#N)=C\c1ccsc1 | > 100 µM (inactive) | > 100 µM (inactive) | > 100 µM (inactive) | > 100 µM (inactive) | > 100 µM (inactive) | > 100 µM (inactive) |  | > 100 µM (inactive) | > 100 µM (inactive)
CC(=O)O[C@H]1C(=O)[C@@]2(C)C(C(OC(=O)c3ccccc3)C3[C@@H](O)C(OC(=O)[C@@H](O)[C@H](NC(=O)c4ccccc4)c4ccc(C(F)(F)F)cc4)C(C)=C1C3(C)C)[C@]1(OC(C)=O)CO[C@@H]1C[C@@H]2O (some centres not stated) | 8.73 µM (inactive) | > 25 µM (inactive) | > 25 µM (inactive) | 11.7 µM (inactive) | 11.3 µM (inactive) | > 25 µM (inactive) |  | 15.2 µM (inactive) | 
CC[C@@]1(O)C(=O)OCc2c1cc1n(c2=O)Cc2cc3c(OC)cccc3nc2-1 | 0.0622 µM (active) |  | 0.27 µM (active) | < 0.01 µM (active) | < 0.01 µM (active) | 0.056 µM (active) | 0.0628 µM (active) | 0.492 µM (active) | 0.0425 µM (active)
